Test results reported in PubChem BioAssay AID449750 (Broad Institute, 2010).
Active and inactive are the calls of the source. No rule for the calls is given here.

Test: non-covalent RecA intein splicing inhibitors, dose response, biochemical, cell-free, fluorescence, secondary screen (AID 449750)

| SMILES | AC50 |
| --- | --- |
| CC(=O)N(C1CC(C)C(C#N)(C#N)C1(C#N)C#N)N(C)C (configuration not stated) | > 38 µM (inactive) |
| CC(=O)N(c1ccccc1)C(C)c1nc(C#N)c(C#N)nc1C (configuration not stated) | > 38 µM (inactive) |
| COc1ccc(OCc2cc(C(=O)NC3CCOC(C)(C)C3)no2)c2ccccc12 (configuration not stated) | 26 µM |
| Cc1ccsc1/C=N/NC(=O)Cc1cc(=O)[nH][nH]1 | 5.95 µM |
| COC(CN(C(=O)CCl)C(C(=O)NC1CCCC(C)C1C)c1ccc(C)cc1)OC (configuration not stated) | 10.9 µM |
| COc1ccccc1-n1nnnc1S(=O)(=O)Cc1ccc(Cl)cc1 | > 38 µM (inactive) |
| Cc1c(C#N)c(NC(=O)CCl)n(Cc2cccs2)c1C | 8.86 µM |
| CCCCc1ccc(NC(=O)CSCc2cc(=O)[nH][nH]2)cc1 | 27.1 µM |
| CN(C)c1ccc(C(=O)n2nnc3ccccc32)cc1 | > 38 µM (inactive) |
| Cc1[nH]n(-c2ccccc2)c(=O)c1C(c1cccc([N+](=O)[O-])c1)c1c(C)[nH]n(-c2ccccc2)c1=O | 8.53 µM |
| CC(C)Cn1c(C(C)C)nc([N+](=O)[O-])c1S(=O)(=O)c1ccc(F)cc1 | > 38 µM (inactive) |
| CCCCCC(=O)O[C@]1(C(C)=O)CC[C@H]2[C@@H]3CCC4=CC(=O)CC[C@]4(C)[C@H]3CC[C@@]21C | 2.02 µM |
| Cc1ccc(-n2[nH]c(C)c(/C=N/NC(=O)c3ccc([N+](=O)[O-])cc3)c2=O)c(C)c1 | 5.27 µM |
| Cc1cc(-c2[nH]nc3c2C(c2ccc(Cl)cc2)C(C#N)=C(N)O3)c(C)s1 (configuration not stated) | 15.2 µM |
| O=C(Oc1ccc(N2C(=O)CCC2=O)cc1)c1ccco1 | 0.433 µM |
| Cc1ccc(OC(=O)c2ccc([N+](=O)[O-])cc2Cl)cn1 | > 38 µM (inactive) |
| CC(/C=N/NC(=O)Cc1cc(=O)[nH][nH]1)=C\c1ccccc1 | 27 µM |
| CSc1nnc(NC(=O)c2nc(S(=O)(=O)Cc3ccccc3F)ncc2Cl)s1 | > 38 µM (inactive) |
| CN(C(=O)c1cccc(COc2ccc(Cl)cc2Cl)c1)c1ccccc1 | > 38 µM (inactive) |
| CC(C)Cc1ccc(-c2cc(=O)[nH][nH]2)cc1 | 13.1 µM |
| NC(=O)c1c(-c2cccs2)csc1N | > 38 µM (inactive) |
| O=C1/C(=N\S(=O)(=O)c2cccs2)C([n+]2ccccc2)=C([O-])c2ccccc21 | 7.78 µM |
| O=S(=O)(Nc1ccc(-n2cnnn2)cc1)c1ccc(F)c(F)c1F | > 38 µM (inactive) |
| COc1cc(C2(c3ccc(O)c(OC)c3)C(=O)Nc3c(Br)cc(Br)cc32)ccc1O | 21.5 µM |
| Cc1nc2ccccc2c2c1C(=O)N(Cc1cccnc1)C2=O | > 38 µM (inactive) |
| COc1cc(/C=C(\C#N)c2nc3ccccc3o2)ccc1O | > 38 µM (inactive) |

| SMILES | AC50 |
| --- | --- |
| O=C(NC1=C(NC2CCS(=O)(=O)C2)C(=O)c2ccccc2C1=O)c1ccccc1 (configuration not stated) | 1.17 µM |
| CCOC(=O)c1[nH]c(=O)c2ccccc2c1O | 2.65 µM |
| CCOC(=O)C1=C(c2ccccc2)NC(N)=NC1c1ccc(OCc2ccc(C(=O)OC)cc2)cc1 (configuration not stated) | 9.55 µM |
| O=C(O)COc1cccc(/C=C2/SC(=S)N(Cc3ccccc3)C2=O)c1 | 21.5 µM |
| Nc1ccc(N)c(C(=O)O)c1 | 21 µM |
| Cc1sc(NC(=O)CSC2=NCCS2)nc1-c1ccccc1 | 26.1 µM |
| COC(=O)CCSc1cc(NCCOC(C)=O)c([N+](=O)[O-])c2nonc12 | > 38 µM (inactive) |
| O=c1[nH]c(Nc2ccccc2)cc2cc(Br)ccc12 | 7 µM |
| CCOc1cc(/C=C2\C(=O)N(CCC#N)N=C2C)ccc1OCC(N)=O | 12.6 µM |
| Cc1cc(C)cc(OC(=O)CS(=O)c2ccc(C(F)(F)F)cc2[N+](=O)[O-])c1 (configuration not stated) | > 38 µM (inactive) |
| CCCc1c(-c2ccc(O)cc2)nn(-c2ccc(O)cc2)c1-c1ccc(O)cc1 | 4.37 µM |
| CCc1[nH]nc2c1C(c1ccc(C)o1)C(C#N)=C(N)O2 (configuration not stated) | > 38 µM (inactive) |
| Cc1nnc(NC(=O)c2nc(S(=O)(=O)Cc3ccccc3C)ncc2Cl)s1 | > 38 µM (inactive) |
| O=c1cc(N=Nc2ccc(Cl)cc2)[nH]c(=O)[nH]1 | > 38 µM (inactive) |
| COC(=O)c1sc(-c2ccc(C(C)(C)C)cc2)cc1NC(=O)/C=C/C(=O)O | 5.71 µM |
| Cc1noc2ncnc(Sc3ccc(Br)cc3)c12 | 13.5 µM |
| O=c1[nH]cc(N=Cc2cc([N+](=O)[O-])ccc2O)c(=O)[nH]1 | > 38 µM (inactive) |
| COc1ccc(-c2cc(=O)[nH][nH]2)cc1OC | 4.35 µM |
| NNc1n[nH]c(=S)n1N | 32.3 µM |
| CCCCCn1c(NC(=O)c2ccco2)c(S(=O)(=O)c2ccc(C)cc2)c2nc3ccccc3nc21 | > 38 µM (inactive) |
| Cn1c2ccccc2c2cc(C(=O)NNC(=O)CCl)sc21 | 16.2 µM |
| O=C(/C=C/c1ccccc1)c1ccc2c3c(cccc13)CC2 | 3.7 µM |
| CCOc1cc(/C=C2\C(=N)N3N=C(N4CCCCC4)SC3=NC2=O)ccc1OC(=O)c1ccco1 | > 38 µM (inactive) |
| CC(C)N(c1ccccc1)c1ccc(NC(=O)CCl)cc1 | 1.45 µM |
| CS/C(=C\[N+](=O)[O-])Nc1ccc(OC(F)(F)F)cc1 | > 38 µM (inactive) |
| CCCCOP(=O)(OCCCC)C1(NS(=O)(=O)c2ccccc2)C=CC(=O)c2ccccc21 (configuration not stated) | 9.07 µM |

| SMILES | AC50 |
| --- | --- |
| COC(=O)c1sc(-c2cccs2)cc1NC(=O)/C=C/C(=O)O | 35.9 µM |
| CN(C1=C(NC(=O)c2ccccc2)C(=O)c2ccccc2C1=O)C1CCS(=O)(=O)C1 (configuration not stated) | 3.3 µM |
| COc1ccc(C(c2c(C)[nH][nH]c2=O)c2c(C)[nH][nH]c2=O)cc1Br | 11.2 µM |
| O=[N+]([O-])c1ccc(O)c2ncccc12 | 6.6 µM |
| COc1ccc(N2C(=O)C(Cl)=C(N3CCOCC3)C2=O)cc1 | > 38 µM (inactive) |
| O=C(CCl)N1N=C(c2cccs2)CC1c1ccco1 (configuration not stated) | 5.44 µM |
| CN1CCc2nc(SCC(=O)Nc3ccc(OC(F)(F)F)cc3)c(C#N)c(-c3cccs3)c2C1 | 23.7 µM |
| O=C(NC1CCCC1)C(c1ccc(F)cc1)N(Cc1ccc(F)cc1)C(=O)CCl (configuration not stated) | 2.96 µM |
| Cn1[nH]c(CSc2ccc(Cl)cc2)cc1=O | 13.3 µM |
| CC(C)NC(=S)NC(c1ccccc1)(c1ccccc1)c1ccccc1 | 27.9 µM |
| COc1ccccc1NC1=C(N2CCCCC2)C(=O)c2ccccc2C1=O | 8.09 µM |
| COc1ccccc1N(C(=O)CCl)c1cn(C(C)=O)c2ccccc12 | 2.36 µM |
| COc1ccc(C(CCN(Cc2ccc(OC)c(OC)c2)C(=O)CCl)c2ccccc2)cc1 (configuration not stated) | 0.613 µM |
| Cc1nc2ccccc2c2c1C(=O)N(C)C2=O | > 38 µM (inactive) |
| O=C1C(Cl)=C(N2CCCCC2)C(=O)N1c1ccccc1 | > 12 µM (inactive) |
| CC(=O)N1CC2(c3ccccc3)CN(C(C)=O)CC(c3ccccc3)(C1)C2=O | > 38 µM (inactive) |
| O=c1c2ccccc2nc(/C=C/c2cccnc2)n1CCc1ccccc1 | 15.9 µM |
| O=C(O)CN1C(=O)/C(=C\c2cccc(OC(=O)c3ccco3)c2)SC1=S | > 38 µM (inactive) |
| O=C1C(Cl)=C(N2CCOCC2)C(=O)N1c1cccc(C(F)(F)F)c1 | > 38 µM (inactive) |
| O=C(N/N=C\c1ccc(-c2ccccc2[N+](=O)[O-])o1)C1COc2ccccc2O1 (configuration not stated) | 8.06 µM |
| CCOc1ccc(-n2c(C)cc(C(=O)CCl)c2C)cc1 | 9.25 µM |
| S=C1NCCC12C(=S)Nc1ccccc12 (configuration not stated) | > 38 µM (inactive) |
| CN(C1=C(NC(=O)c2ccc(Cl)cc2)C(=O)c2ccccc2C1=O)c1ccccc1 | 15 µM |
| CCCCNC1C(CC)C(CCC)C(C#N)(C#N)C1(C#N)C#N (configuration not stated) | > 38 µM (inactive) |
| CC1=NN(c2ccc(N)cc2)C(=O)C1 | 3.44 µM |
